Experimental data from patent publication US20230218573A1, “INDOLE COMPOUNDS FOR THE TREATMENT OF NEURODEGENERATIVE DISEASES” (GALYAN BIO, INC., priority 2020, published 2023).
Entries after “also recorded” stand apart in the source; their conditions may differ.

How the values were obtained:
Mur46 = settings: 0.1 mM compound concentration
Description: MurTRX, Mur 16 and Mur46 Protein Purification - Proteins were loaded onto IMAC resin (ThermoFisher Scientific HisPur) and eluted in 200 mM imidazole, purified by gel filtration FPLC (HiLoad superdex-200, 26/60; GE Life sciences) and concentrated using 3 kDa cut off Vivaspin 20 PES centrifugal concentrators (Sartorius AG). Proteins were biotinylated using a 1:0.5 molar ratio of EZ-link™ Sulfo-NHS-LC-LC-Biotin (ThermoFisher Scientific) and thoroughly dialysed against PBS prior to Biacore coupling.
A customized biotin capture chip using NeutrAvidin as the capture ligand was created for this assay. To obtain high enough ligand density on the sensor chip surface, NeutrAvidin (Thermoscientific Pierce, Waltham, MA USA) was immobilised on all four sensor chip surfaces to a level of approximately 20,000 RU.
Capture of the Mur ligands to NeutrAvidin - Biotinylated proteins were diluted in HBS EP+ running buffer and captured on the sensor chip surface. Mur46 was coupled to the sensor chip first. After saturating FC3 with Mur46, target response levels for Mur16 and MurTRX were calculated based on their respective molecular weights. […]
Analog Screening-Methods - Analog or derivative compounds from the secondary screen were determined and were used in an analog Biacore SPR screen. […]

[1] = Modified PAMPA with brain lipids, blood brain barrier permeation by LC-MS-MS; format: in vitro ADME
Description: Compounds from the Biacore screening were analyzed in a modified Parallel Artificial Permeation Assay (PAMPA) assay for their ability to permeate the blood brain barrier. The filter material of a 96-well microplate is impregnated with brain lipids (Di, L. et al., Eur. J. Med. Chem. 2003 Mar;38(3):223-232). The test compounds were added to the donor compartment. […] Based on these permeation data, the drugs were classified as blood brain barrier permeating (BBB+) with a flux rate >50% or non-permeating (BBB-) with a flux rate <50%.

mHTT [2] = molecular target: T1, mHTT (Mus musculus, UniProt P42859, DEL28-30/G47A/INS49LLPQPQPP/INS60VA/L56P/P40L); assay: Diffuse mHTT levels in heat shocked STHdh 111/111 striatal cells by immunocytochemistry; settings: 48 h, read-out: mHTT after treatment
Description: (§1) Pre-Treatment of striatal cell line - First the medium was removed and new DMEM (DMEM, high glucose, HEPES, no phenol red) medium, supplemented with 10% fetal bovine serum (FBS), 1% Penicillin-Streptomycin, containing 10 µM compound was added. The cells were incubated at 33° C. for 24 hours.
(§2) Heat shock - Cells were heat shocked for 3 hours at 41° C.
(§3) Treatment - Medium was removed and new DMEM (DMEM, high glucose, HEPES, no phenol red) medium, supplemented with 1% fetal bovine serum (FBS), 1% Penicillin-Streptomycin, containing 10 µM compound was added. The cells were incubated at 33° C. for 48 hours.
Staining - Cells were permeabilized with 0.3% Triton X-100 in 4° C. PBS (pH 7.4 from ThermoFisher) for 10 minutes. Then the cells were washed two times with 4° C. PBS. Subsequently, cells are blocked with 3% NGS (normal goat serum from Thermo Fisher) in 4° C. PBS for 1 hour. Cells were incubated with primary antibodies in blocking buffer (PBS, 3% NGS, 0.02% NaN3) over night at 4° C. Primary antibodies were mouse antipolyglutamine monoclonal antibody 3B5H10 (Sigma-Aldrich) at 1:250 dilution and Guinea Pig anti-MAP2 polyclonal antibody (Synaptic Systems) at 1:500 dilution. 3B5H10 binds to diffuse mHTT. Diffuse mHTT is a monomeric and small oligomeric mHTT.
Cells were washed 2 times with 4° C. PBS, and then incubated with secondary antibodies at 1:2000 dilution in blocking buffer for 1 hour at room temperature. […] Cells were washed 2 times with 4° C. PBS, and then the nuclei were counterstain with DAPI (ThermoFisher) for 10 min at room temperature in the dark. Cells were washed 2 times with 4° C. PBS, and then 4° C. PBS was added to cells and then images were acquired.
Fluorescence Imaging - Imaging sessions were performed on a confocal microscope system (Carl Zeiss Microscopy) equipped with a dual spinning disk unit (Yokogawa). All components of the imaging system were controlled via the ZEN 2 software suite (Carl Zeiss Microscopy). The laser lines used were 405 nm, 488 nm and 639 nm to excite DAPI or the respective fluorophores. […] Nested t test was performed to calculate the significance amongst repeated measurements using GraphPad Prism software.
ST HDH Q7/7 (CH00097, Coriell Institute) striatal derived cell line from a knock in transgenic mouse containing HTT loci with a humanized Exon 1 containing 7 polyglutamine repeats.
EC 50 value was determined with non-linear regression.

[3] = test system: Htt14A2.6 PC12 cells (mHttex1-GFP); assay: mHTT aggregation by filter retardation assay in Htt14A2.6 PC12 cells; format: cell-based; settings: 24 hour treatment, different concentrations
Description: Compounds from the Biacore screening were selected for measurement of aggregation in a cell model Htt14A2.6 PC12. Htt14A2.6 PC12 cells express a GFP- tagged 97Q mHtt exon 1 fusion protein (mHttex1-GFP) in the presence of ponasterone A. Htt14A2.6 PC12 cells were grown in medium containing 5 µM ponasterone A for 20 hours prior to treatment with the compounds. Htt14A2.6 PC12 cells were plated at 50~60% confluency. Compound 22 was tested at a final concentration of 80 nM, 400 nM and 10 µM in cell culture medium for 24 hours. Htt14A2.6 PC12 cells were harvested, rinsed, homogenized in cold phosphate-buffered saline containing protease inhibitor cocktail, and centrifuged at 16000 g for 30 min at 4° C. twice. About 25 µg total protein of each sample was resolved in 8% SDS PAGE, transferred onto PVDF membrane, blotted with an anti-GFP antibody, and visualized by ECL detection. mHTT aggregates were quantified from the cell lysates by filter retardation assay (Wanker, E.E., et al., Methods Enzymol (1999); 309: 375-386).

[4] = test system: STHdh 111/111 striatal cells; assay: Cell viability (CellTiter Glo) of heat shocked STHdh 111/111 striatal cells; format: cell-based, mouse; settings: Mus musculus, STHdh 111/111; 10 µM; 48 hours treatment; read-out: Cell Viability striatal cells 3h heat shocked
Description: Cell culture - ST HDH Q111/111 (CH00095, Coriell Institute) striatal derived cell line were grown at 33° C. in DMEM (Sigma-Aldrich), supplemented with 10% fetal bovine serum (FBS), 1% Penicillin-Streptomycin (ThermoFisher Scientific), and 0.4 mg/ml G418 (Geneticin; Invitrogen). ST HDH Q111/111 are mouse striatal cells with polyQ length of 1111.
as §1, §2, §3
Cell Viability - Cell viability was measured according to manufacturer recommendations with CellTiter Glo (Promega). 96-well plates for used either for cell viability determination or cell staining.

mHTT [5] = molecular target: T1, mHTT; assay: mHTT reduction in STHdh 111/111 cells exposed to autophagy inhibitor NH4Cl or UPS inhibitor MG132; format: cell-based; design: host or cells: ST HDH Q111/111 mouse striatal derived cell line; settings: striatal cells exposed to MG132
Description: Invitrogen). […] Staining - Cells were permeabilized with 0.3% Triton X-100 in 4° C. PBS (pH 7.4 from ThermoFisher) for 10 minutes. Then the cells were washed two times with 4° C. PBS. Subsequently, cells are blocked with 3% NGS (normal goat serum from Thermo Fisher) in 4° C. PBS for 1 hour. […] Primary antibodies were mouse antipolyglutamine monoclonal antibody 3B5H10 (Sigma-Aldrich) at 1:250 dilution and Guinea Pig anti-MAP2 polyclonal antibody (Synaptic Systems) at 1:500 dilution. For LC3 staining primary antibodies were mouse anti-LC3 mab (5F10) (nanoTools) at 1:500 dilution and Guinea Pig anti-MAP2 polyclonal antibody (Synaptic Systems) at 1:500 dilution. Cells were washed 2 times with 4° C. PBS, and then incubated with secondary antibodies at 1:2000 dilution in blocking buffer for 1 hour at room temperature. […] Fluorescence Imaging - Imaging sessions were performed on a confocal microscope system (Carl Zeiss Microscopy) equipped with a dual spinning disk unit (Yokogawa). […] The fluorescence images obtained of the immunofluorescence labelled tissue sections were quantified with the help of the “Image Processing and Analysis in Java” or short ImageJ software distributed under the GNU General Public License by the NIH (Rueden, C.T. et al., BMC Bioinformatics. 2017 Nov 29;18(1):529), i.e. the edition used was the Fiji distribution (Schindelin, J. et al., Nature methods. 2012 Jun 28;9(7):676-82). […]

Exon1 Q46 = assay: Circular dichroism of Exon1 Q46, predominantly α-helical state; format: biochemical; settings: Exon1 Q46; conc. compound 1.62 µM
Description: Protein samples were diluted with buffer to 7.5 µM prior to Circular Dichroism (CD) measurements. Measurements were conducted at room temperature.
Four spectra at each measurement were taken every 1 nm from 200 to 260 nm, scanning at 50 nm/min with an averaging time of 1 sec. Spectra were obtained from samples in 20 mM phosphate, pH 7.4. Ten scans were averaged for each sample spectrum
Single-wavelength readings at 222 nm were obtained. After subtraction of the Trx contribution, the α-helical content of Httex1 was estimated from its mean residue ellipticity (MREHttex1) at 222 nm. This calculation was conducted as described by Bravo-Arredondo (Bravo-Arredondo, J.M. et al., J Biol Chem. 2018 Dec 21;293(51):19613-19623).
MRE Exon-1 […] and Q46 (Mean Residue Ellipticity) was measured every 1 sec for 300 sec; the 301 readings for each sample were averaged and MRE Trx subtracted. The number of amino acids in each sample to experience a change in helicity was estimated using a previously developed helix-coil transition model, which gave the change in fraction of helicity (ΔfHelix) by the following equation: […]
where MRE Exon1 Q26 or Q46 (MREHttex1 in the formula) describes the helix-coil transition, obtained from the difference between MRE Eon1 Q26 or Q46 at 222 nm of the fusion protein at the given temperature (in our case 37° C.) and the product of MRE Trx at 222 nm at the same temperature and the fraction of residues comprised by Trx in that particular construct, and
In order to calculate an equilibrium of the two states model, percent α-helicity was calculated using the relation of MREHttex1 = 0 and -34700 (deg cm^2 dmol^-1) for 0% and 100% helicity, respectively.
The CD measurements protocol for Compound 101 was the same as outlined above except that from 206 nm - 210 nm and 220 nm - 224 nm, the step size was 0.2 nm, and the bandwidth was 1 nm.

T1 sequence (P42859 with tags, fused parts or gaps DEL28-30/P40L/G47A/INS49LLPQPQPP/L56P/INS60VA): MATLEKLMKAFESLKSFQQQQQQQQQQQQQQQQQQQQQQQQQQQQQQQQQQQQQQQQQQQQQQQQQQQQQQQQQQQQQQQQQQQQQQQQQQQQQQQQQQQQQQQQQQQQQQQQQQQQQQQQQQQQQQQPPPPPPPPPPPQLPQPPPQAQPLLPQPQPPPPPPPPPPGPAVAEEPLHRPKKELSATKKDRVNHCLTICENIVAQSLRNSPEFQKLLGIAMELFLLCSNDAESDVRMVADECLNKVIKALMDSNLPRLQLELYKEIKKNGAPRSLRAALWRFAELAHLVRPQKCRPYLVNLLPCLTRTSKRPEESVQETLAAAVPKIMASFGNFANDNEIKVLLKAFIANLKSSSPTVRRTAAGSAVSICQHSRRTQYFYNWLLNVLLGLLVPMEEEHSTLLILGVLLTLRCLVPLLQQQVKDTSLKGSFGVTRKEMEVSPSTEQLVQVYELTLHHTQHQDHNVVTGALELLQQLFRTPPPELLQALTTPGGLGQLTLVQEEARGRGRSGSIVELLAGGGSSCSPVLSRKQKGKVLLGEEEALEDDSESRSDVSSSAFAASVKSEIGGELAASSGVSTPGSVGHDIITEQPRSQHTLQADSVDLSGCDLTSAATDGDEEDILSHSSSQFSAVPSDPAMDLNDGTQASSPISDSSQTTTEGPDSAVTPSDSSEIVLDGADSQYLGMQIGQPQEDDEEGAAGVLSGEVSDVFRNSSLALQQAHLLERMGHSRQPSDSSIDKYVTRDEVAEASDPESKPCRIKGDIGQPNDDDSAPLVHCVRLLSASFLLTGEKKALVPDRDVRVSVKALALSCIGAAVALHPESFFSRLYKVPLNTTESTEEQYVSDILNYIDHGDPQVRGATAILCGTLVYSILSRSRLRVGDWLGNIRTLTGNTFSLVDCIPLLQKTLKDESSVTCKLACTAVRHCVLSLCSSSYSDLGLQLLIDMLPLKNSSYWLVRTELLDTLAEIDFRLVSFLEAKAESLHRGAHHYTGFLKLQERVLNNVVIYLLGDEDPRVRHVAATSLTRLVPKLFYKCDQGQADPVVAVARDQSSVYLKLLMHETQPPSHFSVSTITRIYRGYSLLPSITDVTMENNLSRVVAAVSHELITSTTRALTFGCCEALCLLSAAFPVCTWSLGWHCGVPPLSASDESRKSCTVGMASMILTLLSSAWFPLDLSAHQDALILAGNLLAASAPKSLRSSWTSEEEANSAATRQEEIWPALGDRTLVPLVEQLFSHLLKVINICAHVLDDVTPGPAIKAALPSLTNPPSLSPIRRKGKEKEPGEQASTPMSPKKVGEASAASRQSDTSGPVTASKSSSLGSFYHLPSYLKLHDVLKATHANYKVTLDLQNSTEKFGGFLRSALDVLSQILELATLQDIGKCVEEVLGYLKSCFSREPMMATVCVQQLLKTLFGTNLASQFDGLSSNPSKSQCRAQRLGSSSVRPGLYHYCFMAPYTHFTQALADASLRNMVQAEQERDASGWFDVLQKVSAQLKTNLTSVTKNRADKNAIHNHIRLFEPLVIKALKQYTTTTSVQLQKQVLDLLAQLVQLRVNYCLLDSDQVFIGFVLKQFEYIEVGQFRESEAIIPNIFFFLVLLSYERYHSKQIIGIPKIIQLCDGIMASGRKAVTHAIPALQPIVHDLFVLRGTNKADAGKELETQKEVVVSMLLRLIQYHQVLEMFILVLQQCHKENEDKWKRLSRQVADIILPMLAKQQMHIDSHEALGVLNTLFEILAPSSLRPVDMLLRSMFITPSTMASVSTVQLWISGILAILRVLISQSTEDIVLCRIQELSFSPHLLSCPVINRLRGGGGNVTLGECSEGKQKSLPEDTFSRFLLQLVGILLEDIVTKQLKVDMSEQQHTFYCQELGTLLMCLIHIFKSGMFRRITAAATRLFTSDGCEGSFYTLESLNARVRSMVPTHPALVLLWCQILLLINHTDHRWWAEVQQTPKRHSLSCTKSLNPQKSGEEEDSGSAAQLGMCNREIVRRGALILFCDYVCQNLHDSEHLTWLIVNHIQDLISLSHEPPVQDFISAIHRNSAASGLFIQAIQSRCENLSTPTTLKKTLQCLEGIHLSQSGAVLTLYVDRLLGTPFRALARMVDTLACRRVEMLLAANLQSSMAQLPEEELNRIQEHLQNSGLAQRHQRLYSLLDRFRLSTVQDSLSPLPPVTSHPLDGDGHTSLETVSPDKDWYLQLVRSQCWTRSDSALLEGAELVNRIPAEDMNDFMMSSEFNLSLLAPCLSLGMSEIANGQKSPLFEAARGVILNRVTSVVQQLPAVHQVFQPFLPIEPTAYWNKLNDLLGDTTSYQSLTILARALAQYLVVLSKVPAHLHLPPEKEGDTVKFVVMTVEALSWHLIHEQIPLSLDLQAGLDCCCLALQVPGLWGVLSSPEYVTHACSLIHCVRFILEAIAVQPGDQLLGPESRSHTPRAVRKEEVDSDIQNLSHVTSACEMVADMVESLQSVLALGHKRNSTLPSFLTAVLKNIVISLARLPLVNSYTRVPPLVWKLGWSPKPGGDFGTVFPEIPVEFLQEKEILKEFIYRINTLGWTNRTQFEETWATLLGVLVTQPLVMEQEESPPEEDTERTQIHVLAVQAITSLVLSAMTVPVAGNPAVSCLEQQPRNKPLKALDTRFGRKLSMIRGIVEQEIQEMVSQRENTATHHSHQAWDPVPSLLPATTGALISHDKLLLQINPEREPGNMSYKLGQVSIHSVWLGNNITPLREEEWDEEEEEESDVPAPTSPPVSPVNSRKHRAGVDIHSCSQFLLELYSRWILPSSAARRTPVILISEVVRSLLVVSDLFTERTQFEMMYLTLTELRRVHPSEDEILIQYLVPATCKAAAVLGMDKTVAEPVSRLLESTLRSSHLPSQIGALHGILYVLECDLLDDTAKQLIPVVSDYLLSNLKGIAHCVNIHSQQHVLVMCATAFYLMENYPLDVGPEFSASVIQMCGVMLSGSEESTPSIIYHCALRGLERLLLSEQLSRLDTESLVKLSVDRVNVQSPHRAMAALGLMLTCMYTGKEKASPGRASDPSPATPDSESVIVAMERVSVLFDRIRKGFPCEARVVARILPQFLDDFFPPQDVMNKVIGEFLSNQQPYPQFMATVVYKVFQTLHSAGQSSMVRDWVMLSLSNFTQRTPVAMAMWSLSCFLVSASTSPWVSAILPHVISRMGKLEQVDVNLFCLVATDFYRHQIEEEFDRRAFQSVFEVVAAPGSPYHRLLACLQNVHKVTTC

Cc1[nH]c2ccc(C(=O)N(C)CCN(C)C3CC3)cc2c1C [Compound 114]
Biacore affinity (RU^2) (Mur46): 20 RU^2

Cc1[nH]c2ccc(C(=O)NCCN(C)C)cc2c1C [Compound 7]
Biacore affinity (RU^2) (Mur46): 122 RU^2
Classification [1]: BBB+ (blood brain barrier permeating (BBB+) with a flux rate >50%)
recovery [1]: 88.5%
remaining activity at 10 µM (mHTT [2]): 45%
reduction of mHTT aggregation (filter retardation) [3]: A reduction of aggregation of Htt14A2.6 PC12 was not observed; also recorded: did not show a reduction of aggregation
viability at 10 µM [4]: 96%

O=C(NCCN1CCC1)c1ccc2[nH]c3c(c2c1)CCCC3 [Compound 20]
mHTT reduction with MG132 in comparison to without MG132 (mHTT [5]): less
viability at 10 µM [4]: 118%

Cc1[nH]c2ccc(C(=O)NC3CCC(N(C)C)CC3)cc2c1C (centres unmarked) [Compound 101, N-(4-(dimethylamino)cyclohexyl)-2,3-dimethyl-1H-indole-5-carboxamide]
Fraction Helix fH (%) (Exon1 Q46): 19.0%
viability at 10 µM [4]: 110%
